{"source": "patent US20190263796A1", "about": "“LIM KINASE INHIBITORS, PHARMACEUTICAL COMPOSITION AND METHOD OF USE IN LIMK-MEDIATED DISEASES” (CELLIPSE, priority 2016, published 2019)", "key": {"[1]": {"system": "Phospho-Ser3-Cofilin/Total Cofilin", "experiment": "Western blot cofilin phosphorylation, Kasumi-1", "type": "cell-based", "conditions": "Homo sapiens; Kasumi-1 cells; 2 h", "procedure": "Kasumi-1 cell line was originally purchased from the American Type Culture Collection (ATCC). Kasumi-1 cells are cultured in RPMI 1640 20% (v/v) FBS supplemented with 100 U/mL^−1 penicillin, 0.1 mg·mL^−1 streptomycin (PAN Biotech P06-07100). Cells were maintained at 37° C. with 5% CO2.\nIn a 6 wells plate (Falcon 353046), 2·10^6 cells in 1.5 mL medium are treated for 2 h with compounds. Cells are then collected and cell lysis is performed at 4° C. using RIPA buffer supplemented with protease inhibitors cocktail (Sigma-Aldrich P8340) and phosphatase inhibitors cocktail (Sigma-Aldrich P5726). Following centrifugation 30 min 15000 g 4° C., supernatants are mixed with Laemmli buffer and denaturation is performed by heating 5 min 95° C. 10 μL of samples are subjected to electrophoresis on 15% SDS-PAGE. After electro-transfer (Mini Transblot, Bio-Rad), the PVDF membrane (Merck-Millipore Immobilon P IPVH00010) is blocked with Tris Buffered Saline, pH 7.4 (TBS) with 0.1% Tween 20 and 5% BSA for 1 h RT under agitation. […] For each concentration of compound, ratio between phosphorylated cofilin and total cofilin is determined. This ratio is then expressed as percentage of control ratio (i.e., ratio from DMSO treated cells). IC50 Phospho-Ser3-Cofilin/Total Cofilin is then determined."}, "[2]": {"molecular_target": "T1, Abl(h) (Homo sapiens, UniProt P00519)", "T1 construct": "purchased Merck-Millipore (KinaseProfiler panel service)", "experiment": "KinaseProfiler panel: Abl(h)", "type": "biochemical", "conditions": "residual activity, 5 μM inhibitor, Km ATP", "procedure": "(§1) Kinase selectivity was performed on a panel of 58 recombinant protein kinases. The assays were performed in the presence of 5 μM inhibitor at the respective Km ATP for each kinase, using the KinaseProfiler panel service (Merck-Millipore). Residual activity measured in the presence of […] inhibitor is expressed as the percent of activity determined in the absence of inhibitor."}, "[3]": {"molecular_target": "T2, Aurora-B(h) (Homo sapiens, UniProt Q96GD4)", "T2 construct": "purchased Merck-Millipore (KinaseProfiler panel service)", "experiment": "KinaseProfiler panel: Aurora-B(h)", "type": "biochemical", "conditions": "residual activity, 5 μM inhibitor, Km ATP", "procedure": "as §1"}, "[4]": {"molecular_target": "T3, B-Raf(V599E)(h) (Homo sapiens, UniProt P15056, V600E)", "T3 construct": "purchased Merck-Millipore (KinaseProfiler panel service)", "experiment": "KinaseProfiler panel: B-Raf(V599E)(h)", "type": "biochemical", "conditions": "residual activity, 5 μM inhibitor, Km ATP", "procedure": "as §1"}, "[5]": {"molecular_target": "T4, c-RAF(h) (Homo sapiens, UniProt P04049)", "T4 construct": "purchased Merck-Millipore (KinaseProfiler panel service)", "experiment": "KinaseProfiler panel: c-RAF(h)", "type": "biochemical", "conditions": "residual activity, 5 μM inhibitor, Km ATP", "procedure": "as §1"}, "[6]": {"molecular_target": "T5, FAK(h) (Homo sapiens, UniProt Q05397)", "T5 construct": "purchased Merck-Millipore (KinaseProfiler panel service)", "T5 sequence (Q05397 whole entry)": "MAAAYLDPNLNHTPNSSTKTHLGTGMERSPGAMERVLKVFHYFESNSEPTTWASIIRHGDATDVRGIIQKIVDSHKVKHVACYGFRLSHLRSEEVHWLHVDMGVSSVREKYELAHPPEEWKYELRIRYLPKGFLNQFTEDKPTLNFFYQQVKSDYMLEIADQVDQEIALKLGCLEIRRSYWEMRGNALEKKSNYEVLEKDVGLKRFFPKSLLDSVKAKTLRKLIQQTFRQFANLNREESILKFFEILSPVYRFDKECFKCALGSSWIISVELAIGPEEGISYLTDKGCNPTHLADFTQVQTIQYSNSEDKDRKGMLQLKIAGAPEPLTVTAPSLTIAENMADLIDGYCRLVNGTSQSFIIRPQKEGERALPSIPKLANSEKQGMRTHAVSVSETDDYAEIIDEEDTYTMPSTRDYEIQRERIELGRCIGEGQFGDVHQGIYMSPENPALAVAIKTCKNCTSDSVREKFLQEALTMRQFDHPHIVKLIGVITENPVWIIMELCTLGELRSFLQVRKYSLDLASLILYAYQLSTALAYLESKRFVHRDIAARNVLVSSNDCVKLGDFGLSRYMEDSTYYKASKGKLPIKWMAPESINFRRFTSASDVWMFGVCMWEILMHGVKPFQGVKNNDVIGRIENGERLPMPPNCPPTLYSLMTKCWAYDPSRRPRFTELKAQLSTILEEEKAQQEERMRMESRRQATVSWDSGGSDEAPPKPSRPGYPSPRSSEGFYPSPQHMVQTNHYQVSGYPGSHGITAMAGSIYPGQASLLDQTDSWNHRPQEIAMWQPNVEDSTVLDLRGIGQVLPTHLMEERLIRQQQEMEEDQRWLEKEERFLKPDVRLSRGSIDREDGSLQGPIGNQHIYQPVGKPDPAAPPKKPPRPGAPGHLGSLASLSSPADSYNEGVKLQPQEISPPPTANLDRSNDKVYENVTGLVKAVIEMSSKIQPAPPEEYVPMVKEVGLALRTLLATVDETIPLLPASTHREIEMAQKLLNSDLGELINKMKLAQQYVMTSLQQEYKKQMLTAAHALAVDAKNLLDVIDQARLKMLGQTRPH", "experiment": "KinaseProfiler panel: FAK(h)", "type": "biochemical", "conditions": "residual activity, 5 μM inhibitor, Km ATP", "procedure": "as §1"}, "[7]": {"molecular_target": "T6, Flt1(h) (Homo sapiens, UniProt P17948)", "T6 construct": "purchased Merck-Millipore (KinaseProfiler panel service)", "experiment": "KinaseProfiler panel: Flt1(h)", "type": "biochemical", "conditions": "residual activity, 5 μM inhibitor, Km ATP", "procedure": "as §1"}, "[8]": {"molecular_target": "T7, IGF-1R(h), activated (Homo sapiens, UniProt P08069)", "T7 construct": "purchased Merck-Millipore (KinaseProfiler panel service)", "experiment": "KinaseProfiler panel: IGF-1R(h), activated", "type": "biochemical", "conditions": "residual activity, 5 μM inhibitor, Km ATP", "procedure": "as §1"}, "[9]": {"molecular_target": "T8, IKKα(h) (Homo sapiens, UniProt O15111)", "T8 construct": "purchased Merck-Millipore (KinaseProfiler panel service)", "T8 sequence (O15111 whole entry)": "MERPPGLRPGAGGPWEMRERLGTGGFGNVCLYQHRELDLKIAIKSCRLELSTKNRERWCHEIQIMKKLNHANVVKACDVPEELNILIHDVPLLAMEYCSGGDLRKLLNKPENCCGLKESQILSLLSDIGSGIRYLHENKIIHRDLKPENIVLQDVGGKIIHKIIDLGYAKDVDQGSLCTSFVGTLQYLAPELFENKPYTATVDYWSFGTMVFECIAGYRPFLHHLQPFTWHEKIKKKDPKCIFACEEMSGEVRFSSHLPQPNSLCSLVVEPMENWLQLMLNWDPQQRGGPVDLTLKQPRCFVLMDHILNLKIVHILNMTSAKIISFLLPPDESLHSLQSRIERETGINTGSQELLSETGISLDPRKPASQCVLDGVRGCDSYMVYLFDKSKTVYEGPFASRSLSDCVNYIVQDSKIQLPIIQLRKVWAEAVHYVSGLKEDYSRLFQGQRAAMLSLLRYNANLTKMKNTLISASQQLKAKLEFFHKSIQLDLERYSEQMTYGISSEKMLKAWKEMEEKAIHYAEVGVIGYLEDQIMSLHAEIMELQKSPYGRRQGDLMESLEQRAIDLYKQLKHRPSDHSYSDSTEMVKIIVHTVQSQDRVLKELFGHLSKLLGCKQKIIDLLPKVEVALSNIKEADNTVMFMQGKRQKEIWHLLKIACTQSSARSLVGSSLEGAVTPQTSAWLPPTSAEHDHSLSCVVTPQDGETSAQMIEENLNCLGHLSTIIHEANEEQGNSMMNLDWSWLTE", "experiment": "KinaseProfiler panel: IKKα(h)", "type": "biochemical", "conditions": "residual activity, 5 μM inhibitor, Km ATP", "procedure": "as §1"}, "[10]": {"molecular_target": "T9, IR(h), activated (Homo sapiens, UniProt P06213)", "T9 construct": "purchased Merck-Millipore (KinaseProfiler panel service)", "experiment": "KinaseProfiler panel: IR(h), activated", "type": "biochemical", "conditions": "residual activity, 5 μM inhibitor, Km ATP", "procedure": "as §1"}, "[11]": {"molecular_target": "T10, JAK2(h) (Homo sapiens, UniProt O60674)", "T10 construct": "purchased Merck-Millipore (KinaseProfiler panel service)", "experiment": "KinaseProfiler panel: JAK2(h)", "type": "biochemical", "conditions": "residual activity, 5 μM inhibitor, Km ATP", "procedure": "as §1"}, "[12]": {"molecular_target": "T11, KDR(h) (Homo sapiens, UniProt P35968)", "T11 construct": "purchased Merck-Millipore (KinaseProfiler panel service)", "experiment": "KinaseProfiler panel: KDR(h)", "type": "biochemical", "conditions": "residual activity, 5 μM inhibitor, Km ATP", "procedure": "as §1"}, "[13]": {"molecular_target": "T12, MEK1(h) (Homo sapiens, UniProt Q02750)", "T12 construct": "purchased Merck-Millipore (KinaseProfiler panel service)", "experiment": "KinaseProfiler panel: MEK1(h)", "type": "biochemical", "conditions": "residual activity, 5 μM inhibitor, Km ATP", "procedure": "as §1"}, "[14]": {"molecular_target": "T13, MKK4(m) (Mus musculus, UniProt P47809)", "T13 construct": "purchased Merck-Millipore (KinaseProfiler panel service)", "experiment": "KinaseProfiler panel: MKK4(m)", "type": "biochemical", "conditions": "residual activity, 5 μM inhibitor, Km ATP", "procedure": "as §1"}, "[15]": {"system": "MLCK(h)", "experiment": "KinaseProfiler panel: MLCK(h)", "type": "biochemical, human", "conditions": "residual activity, 5 μM inhibitor, Km ATP", "procedure": "as §1"}, "[16]": {"molecular_target": "T14, MRCKβ(h) (Homo sapiens, UniProt Q9Y5S2)", "T14 construct": "purchased Merck-Millipore (KinaseProfiler panel service)", "T14 sequence (Q9Y5S2 whole entry)": "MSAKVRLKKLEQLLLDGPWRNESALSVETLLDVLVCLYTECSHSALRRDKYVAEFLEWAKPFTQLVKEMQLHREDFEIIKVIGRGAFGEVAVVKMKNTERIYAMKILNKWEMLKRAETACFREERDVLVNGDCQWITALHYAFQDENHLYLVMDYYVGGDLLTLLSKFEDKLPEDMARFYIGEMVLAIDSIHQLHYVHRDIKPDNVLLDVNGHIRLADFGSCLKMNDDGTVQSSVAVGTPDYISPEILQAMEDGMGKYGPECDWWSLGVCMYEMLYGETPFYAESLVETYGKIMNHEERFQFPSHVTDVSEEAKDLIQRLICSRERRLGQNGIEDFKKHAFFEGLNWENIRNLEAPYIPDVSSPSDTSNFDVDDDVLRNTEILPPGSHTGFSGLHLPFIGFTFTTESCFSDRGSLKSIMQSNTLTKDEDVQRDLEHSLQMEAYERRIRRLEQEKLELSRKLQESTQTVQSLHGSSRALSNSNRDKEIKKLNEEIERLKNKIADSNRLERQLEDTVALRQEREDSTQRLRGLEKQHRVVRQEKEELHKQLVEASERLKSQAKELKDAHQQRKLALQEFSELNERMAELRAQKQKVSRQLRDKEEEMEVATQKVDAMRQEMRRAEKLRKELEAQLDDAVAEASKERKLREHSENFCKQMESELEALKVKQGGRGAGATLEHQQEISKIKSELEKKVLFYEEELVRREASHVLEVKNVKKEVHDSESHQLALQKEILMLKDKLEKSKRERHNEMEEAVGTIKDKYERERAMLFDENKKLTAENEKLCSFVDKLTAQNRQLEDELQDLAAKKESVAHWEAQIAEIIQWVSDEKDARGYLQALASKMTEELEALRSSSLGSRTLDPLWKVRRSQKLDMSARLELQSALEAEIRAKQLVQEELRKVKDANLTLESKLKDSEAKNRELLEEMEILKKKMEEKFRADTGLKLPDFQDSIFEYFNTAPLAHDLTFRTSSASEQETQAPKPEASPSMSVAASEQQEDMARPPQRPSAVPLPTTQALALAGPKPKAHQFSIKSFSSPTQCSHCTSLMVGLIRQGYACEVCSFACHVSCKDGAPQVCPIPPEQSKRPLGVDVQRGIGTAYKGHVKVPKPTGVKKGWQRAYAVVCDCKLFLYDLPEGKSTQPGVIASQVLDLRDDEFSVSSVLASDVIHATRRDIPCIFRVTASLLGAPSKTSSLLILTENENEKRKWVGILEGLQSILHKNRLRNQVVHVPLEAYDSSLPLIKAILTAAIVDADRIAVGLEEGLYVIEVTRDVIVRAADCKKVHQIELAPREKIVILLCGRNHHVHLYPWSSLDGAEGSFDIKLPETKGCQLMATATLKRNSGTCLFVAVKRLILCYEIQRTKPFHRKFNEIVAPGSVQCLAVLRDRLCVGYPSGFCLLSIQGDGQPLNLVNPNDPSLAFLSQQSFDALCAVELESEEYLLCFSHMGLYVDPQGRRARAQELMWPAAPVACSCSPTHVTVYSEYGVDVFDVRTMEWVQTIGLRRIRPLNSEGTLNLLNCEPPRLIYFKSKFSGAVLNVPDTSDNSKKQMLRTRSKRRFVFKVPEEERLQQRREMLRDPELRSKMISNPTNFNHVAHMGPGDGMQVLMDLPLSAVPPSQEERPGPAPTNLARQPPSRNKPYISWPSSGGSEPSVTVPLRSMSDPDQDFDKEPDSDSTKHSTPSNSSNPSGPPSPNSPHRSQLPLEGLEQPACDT", "experiment": "KinaseProfiler panel: MRCKβ(h)", "type": "biochemical", "conditions": "residual activity, 5 μM inhibitor, Km ATP", "procedure": "as §1"}, "[17]": {"molecular_target": "T15, p70S6K(h) (Homo sapiens, UniProt P23443)", "T15 construct": "purchased Merck-Millipore (KinaseProfiler panel service)", "experiment": "KinaseProfiler panel: p70S6K(h)", "type": "biochemical", "conditions": "residual activity, 5 μM inhibitor, Km ATP", "procedure": "as §1"}, "[18]": {"molecular_target": "T16, PAK2(h) (Homo sapiens, UniProt Q13177)", "T16 construct": "purchased Merck-Millipore (KinaseProfiler panel service)", "experiment": "KinaseProfiler panel: PAK2(h)", "type": "biochemical", "conditions": "residual activity, 5 μM inhibitor, Km ATP", "procedure": "as §1"}, "[19]": {"molecular_target": "T17, PAK4(h) (Homo sapiens, UniProt O96013)", "T17 construct": "purchased Merck-Millipore (KinaseProfiler panel service)", "T17 sequence (O96013 whole entry)": "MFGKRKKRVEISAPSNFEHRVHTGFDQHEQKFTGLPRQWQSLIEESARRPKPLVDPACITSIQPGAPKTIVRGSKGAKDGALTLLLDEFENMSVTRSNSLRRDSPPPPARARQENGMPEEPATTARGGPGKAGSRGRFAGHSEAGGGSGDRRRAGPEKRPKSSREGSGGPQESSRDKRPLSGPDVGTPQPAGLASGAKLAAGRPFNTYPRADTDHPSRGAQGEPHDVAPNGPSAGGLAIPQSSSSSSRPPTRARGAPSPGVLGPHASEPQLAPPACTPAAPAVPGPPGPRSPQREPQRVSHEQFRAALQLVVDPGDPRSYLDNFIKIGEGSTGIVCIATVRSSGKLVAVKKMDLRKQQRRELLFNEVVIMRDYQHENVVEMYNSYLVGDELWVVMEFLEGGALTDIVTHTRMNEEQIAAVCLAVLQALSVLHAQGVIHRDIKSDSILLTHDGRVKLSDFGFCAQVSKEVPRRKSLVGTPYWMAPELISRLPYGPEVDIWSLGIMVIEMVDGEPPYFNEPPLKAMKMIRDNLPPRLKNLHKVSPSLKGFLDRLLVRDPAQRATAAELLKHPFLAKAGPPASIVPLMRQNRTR", "experiment": "KinaseProfiler panel: PAK4(h)", "type": "biochemical", "conditions": "residual activity, 5 μM inhibitor, Km ATP", "procedure": "as §1"}, "[20]": {"molecular_target": "T18, PAK3(h) (Homo sapiens, UniProt O75914)", "T18 construct": "purchased Merck-Millipore (KinaseProfiler panel service)", "experiment": "KinaseProfiler panel: PAK3(h)", "type": "biochemical", "conditions": "residual activity, 5 μM inhibitor, Km ATP", "procedure": "as §1"}, "[21]": {"molecular_target": "T19, PAK5(h) (Homo sapiens, UniProt Q9P286)", "T19 construct": "purchased Merck-Millipore (KinaseProfiler panel service)", "T19 sequence (Q9P286 whole entry)": "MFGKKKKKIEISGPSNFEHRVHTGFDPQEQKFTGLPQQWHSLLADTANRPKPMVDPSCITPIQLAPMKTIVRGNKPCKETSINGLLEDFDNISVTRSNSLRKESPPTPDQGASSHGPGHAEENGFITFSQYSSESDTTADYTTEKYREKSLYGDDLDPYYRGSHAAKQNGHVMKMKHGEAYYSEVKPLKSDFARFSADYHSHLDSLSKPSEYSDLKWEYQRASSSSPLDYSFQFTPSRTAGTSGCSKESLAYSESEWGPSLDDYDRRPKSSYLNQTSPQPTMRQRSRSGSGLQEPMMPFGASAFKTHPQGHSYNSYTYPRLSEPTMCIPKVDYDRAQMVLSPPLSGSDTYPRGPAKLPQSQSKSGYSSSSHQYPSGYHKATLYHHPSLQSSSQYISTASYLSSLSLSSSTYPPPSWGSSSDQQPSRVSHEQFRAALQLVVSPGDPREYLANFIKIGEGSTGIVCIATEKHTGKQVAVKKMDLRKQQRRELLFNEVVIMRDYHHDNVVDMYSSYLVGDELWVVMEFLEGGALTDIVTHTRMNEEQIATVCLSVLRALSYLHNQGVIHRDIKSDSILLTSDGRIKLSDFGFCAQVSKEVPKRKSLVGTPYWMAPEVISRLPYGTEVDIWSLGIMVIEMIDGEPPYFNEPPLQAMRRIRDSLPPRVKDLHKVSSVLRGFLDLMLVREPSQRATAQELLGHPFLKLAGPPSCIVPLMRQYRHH", "experiment": "KinaseProfiler panel: PAK5(h)", "type": "biochemical", "conditions": "residual activity, 5 μM inhibitor, Km ATP", "procedure": "as §1"}, "[22]": {"molecular_target": "T20, Plk1(h) (Homo sapiens, UniProt P53350)", "T20 construct": "purchased Merck-Millipore (KinaseProfiler panel service)", "experiment": "KinaseProfiler panel: Plk1(h)", "type": "biochemical", "conditions": "residual activity, 5 μM inhibitor, Km ATP", "procedure": "as §1"}, "[23]": {"molecular_target": "T21, ROCK-I(h) (Homo sapiens, UniProt Q13464)", "T21 construct": "purchased Merck-Millipore (KinaseProfiler panel service)", "experiment": "KinaseProfiler panel: ROCK-I(h)", "type": "biochemical", "conditions": "residual activity, 5 μM inhibitor, Km ATP", "procedure": "as §1"}, "[24]": {"molecular_target": "T22, ROCK-II(h) (Homo sapiens, UniProt O75116)", "T22 construct": "purchased Merck-Millipore (KinaseProfiler panel service)", "experiment": "KinaseProfiler panel: ROCK-II(h)", "type": "biochemical", "conditions": "residual activity, 5 μM inhibitor, Km ATP", "procedure": "as §1"}, "[25]": {"molecular_target": "T23, SAPK2a(h) (Homo sapiens, UniProt Q16539)", "T23 construct": "purchased Merck-Millipore (KinaseProfiler panel service)", "experiment": "KinaseProfiler panel: SAPK2a(h)", "type": "biochemical", "conditions": "residual activity, 5 μM inhibitor, Km ATP", "procedure": "as §1"}, "[26]": {"molecular_target": "T24, TAK1(h) (Homo sapiens, UniProt O43318)", "T24 construct": "purchased Merck-Millipore (KinaseProfiler panel service)", "experiment": "KinaseProfiler panel: TAK1(h)", "type": "biochemical", "conditions": "residual activity, 5 μM inhibitor, Km ATP", "procedure": "as §1"}, "[27]": {"molecular_target": "T25, TrkA(h) (Homo sapiens, UniProt P04629)", "T25 construct": "purchased Merck-Millipore (KinaseProfiler panel service)", "experiment": "KinaseProfiler panel: TrkA(h)", "type": "biochemical", "conditions": "residual activity, 5 μM inhibitor, Km ATP", "procedure": "as §1"}}}
{"smiles": "O=S(=O)(Nc1cccc(-c2nc(CCO)sc2-c2ccnc(Nc3ccccc3)n2)c1F)c1c(F)cccc1F", "note": "[8 (Na)]", "values": [{"measurement": "IC50", "setting": "[1]", "value": "< 0.2", "unit": "µM"}]}
{"smiles": "CC(C)(C)c1nc(-c2cccc(NS(=O)(=O)c3c(F)cccc3F)c2F)c(-c2ccnc(Nc3ccccc3)n2)s1", "note": "[Compound 1, N-(3-(2-(tert-butyl)-5-(2-(phenylamino)pyrimidin-4-yl)thiazol-4-yl)-2-fluorophenyl)-2,6-difluorobenzenesulfonamide]", "values": [{"measurement": "activity at 5 µM", "setting": "[2]", "value": "≥ 50", "unit": "%"}, {"measurement": "activity at 5 µM", "setting": "[3]", "value": "10 to 50", "unit": "%"}, {"measurement": "activity at 5 µM", "setting": "[4]", "value": "3 to 10", "unit": "%"}, {"measurement": "activity at 5 µM", "setting": "[5]", "value": "3 to 10", "unit": "%"}, {"measurement": "activity at 5 µM", "setting": "[6]", "value": "≥ 50", "unit": "%"}, {"measurement": "activity at 5 µM", "setting": "[7]", "value": "10 to 50", "unit": "%"}, {"measurement": "activity at 5 µM", "setting": "[8]", "value": "≥ 50", "unit": "%"}, {"measurement": "activity at 5 µM", "setting": "[9]", "value": "≥ 50", "unit": "%"}, {"measurement": "activity at 5 µM", "setting": "[10]", "value": "≥ 50", "unit": "%"}, {"measurement": "activity at 5 µM", "setting": "[11]", "value": "≥ 50", "unit": "%"}, {"measurement": "activity at 5 µM", "setting": "[12]", "value": "10 to 50", "unit": "%"}, {"measurement": "activity at 5 µM", "setting": "[13]", "value": "≥ 50", "unit": "%"}, {"measurement": "activity at 5 µM", "setting": "[14]", "value": "≥ 50", "unit": "%"}, {"measurement": "% activity", "setting": "[15]", "value": "− (50%≤residual activity)"}, {"measurement": "activity at 5 µM", "setting": "[16]", "value": "≥ 50", "unit": "%"}, {"measurement": "activity at 5 µM", "setting": "[17]", "value": "≥ 50", "unit": "%"}, {"measurement": "activity at 5 µM", "setting": "[18]", "value": "≥ 50", "unit": "%"}, {"measurement": "activity at 5 µM", "setting": "[19]", "value": "≥ 50", "unit": "%"}, {"measurement": "activity at 5 µM", "setting": "[20]", "value": "≥ 50", "unit": "%"}, {"measurement": "activity at 5 µM", "setting": "[21]", "value": "≥ 50", "unit": "%"}, {"measurement": "activity at 5 µM", "setting": "[22]", "value": "≥ 50", "unit": "%"}, {"measurement": "activity at 5 µM", "setting": "[23]", "value": "≥ 50", "unit": "%"}, {"measurement": "activity at 5 µM", "setting": "[24]", "value": "≥ 50", "unit": "%"}, {"measurement": "activity at 5 µM", "setting": "[25]", "value": "≥ 50", "unit": "%"}, {"measurement": "activity at 5 µM", "setting": "[26]", "value": "≥ 50", "unit": "%"}, {"measurement": "activity at 5 µM", "setting": "[27]", "value": "10 to 50", "unit": "%"}]}
